According to patent publication US9725468B2, “C5-spiro iminothiazine dioxides as BACE inhibitors, compositions, and their use” (Merck Sharp & Dohme Corp., priority 2013, dated 2017):

Experiments:
[1] = target: T1, purified human autoBACE-2 (Homo sapiens, UniProt Q9Y5Z0); assay: BACE-2 Assay (BACE-HTRF assay); format: biochemical; conditions: Ki calculated from IC50 using the Cheng-Prusoff equation; QSY7-EISEVNLDAEFC-Eu-amide substrate 200 nM, pH 5.0; read-out: BACE2 Ki
T1 sequence (Q9Y5Z0 63-473 limits assumed): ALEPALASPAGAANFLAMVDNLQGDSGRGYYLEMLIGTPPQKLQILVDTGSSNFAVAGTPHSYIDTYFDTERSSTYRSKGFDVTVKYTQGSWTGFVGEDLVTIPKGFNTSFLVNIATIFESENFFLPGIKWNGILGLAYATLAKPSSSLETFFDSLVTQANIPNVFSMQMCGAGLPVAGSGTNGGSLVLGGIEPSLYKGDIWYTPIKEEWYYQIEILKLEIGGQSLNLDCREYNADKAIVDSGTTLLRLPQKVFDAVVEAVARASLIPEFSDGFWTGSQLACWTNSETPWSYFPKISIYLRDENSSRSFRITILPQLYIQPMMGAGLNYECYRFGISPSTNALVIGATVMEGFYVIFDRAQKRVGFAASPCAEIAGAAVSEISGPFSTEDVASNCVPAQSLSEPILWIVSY
Procedure: Inhibitor ICsos at purified human autoBACE-2 are determined in a time-resolved endpoint proteolysis assay that measures hydrolysis of the QSY7-EISEVNLDAEFC-Eu-amide FRET peptide substrate (BACE-HTRF assay). BACE-mediated hydrolysis of this peptide results in an increase in relative fluorescence (RFU) at 620 nm after excitation with 320 nm light. Inhibitor compounds, prepared at 3× the desired final concentration in 1×BACE assay buffer (20 mM sodium acetate pH 5.0, 10% glycerol, 0.1% Brij-35) supplemented with 7.5% DMSO are preincubated with an equal volume of autoBACE-2 enzyme diluted in 1×BACE assay buffer (final enzyme concentration 1 nM) in black 384-well NUNC plates for 30 minutes at 30° C. The assay is initiated by addition of an equal volume of the QSY7-EISEVNLDAEFC-Eu-amide substrate (200 nM final concentration, […]) prepared in 1×BACE assay buffer supplemented with 7.5% DMSO and incubated for 90 minutes at 30° C. DMSO is present at 5% final concentration in the assay. Following laser excitation of sample wells at 320 nm, the fluorescence signal at 620 nm is collected for 400 ms following a 50 μs delay on a RUBYstar HTRF plate reader (BMG Labtechnologies). Raw RFU data is normalized to maximum (1.0 nM BACE/DMSO) and minimum (no enzyme/DMSO) RFU values. IC50s are determined by nonlinear regression analysis (sigmoidal dose response, variable slope) of percent inhibition data with minimum and maximum values set to 0 and 100 percent respectively. Similar IC50s are obtained when using raw RFU data. The Ki values are calculated from the IC50 using the Cheng-Prusoff equation.

[2] = target: soluble human BACE1 catalytic domain (Homo sapiens, UniProt P56817); assay: BACE1 HTRF FRET Assay; format: biochemical; conditions: Ki calculated from IC50 using the Cheng-Prusoff equation; QSY7-APPswe-Eu substrate 200 nM, pH 5.0
Text: Na^+-Acetate pH 5.0; 1% Brij-35; Glycerol; Dimethyl Sulfoxide (DMSO); Recombinant human soluble BACE1 catalytic domain (>95% pure); APP Swedish mutant peptide substrate (QSY7-APP^swe-Eu): QSY7-EISEVNLDAEFC-Europium-amide.
A homogeneous time-resolved FRET assay can be used to determine IC50 values for inhibitors of the soluble human BACE1 catalytic domain. This assay monitors the increase of 620 nm fluorescence that resulted from BACE1 cleavage of an APPswedish APP^swe mutant peptide FRET substrate (QSY7-EISEVNLDAEFC-Europium-amide). This substrate contains an N-terminal QSY7 moiety that serves as a quencher of the C-terminal Europium fluorophore (620 nm Em). In the absence of enzyme activity, 620 nm fluorescence is low in the assay and increased linearly over 3 hours in the presence of uninhibited BACE1 enzyme. Inhibition of BACE1 cleavage of the QSY7-APP^swe-Eu substrate by inhibitors is manifested as a suppression of 620 nm fluorescence.
Varying concentrations of inhibitors at 3× the final desired concentration in a volume of 10 ul are preincubated with purified human BACE1 catalytic domain (3 nM in 10 μl) for 30 minutes at 30° C. in reaction buffer containing 20 mM Na-Acetate pH 5.0, 10% glycerol, 0.1% Brij-35 and 7.5% DSMO. Reactions are initiated by addition of 10 μl of 600 nM QSY7-APP^swe-Eu substrate (200 nM final) to give a final reaction volume of 30 μl in a 384 well Nunc HTRF plate. The reactions are incubated at 30° C. for 1.5 hours. The 620 nm fluorescence is then read on a Rubystar HTRF plate reader (BMG Labtechnologies) using a 50 millisecond delay followed by a 400 millisecond acquisition time window. Inhibitor IC50 values are derived from non-linear regression analysis of concentration response curves. Ki values are then calculated from IC50 values using the Cheng-Prusoff equation using a previously determined […] for the QSY7-APP^swe-Eu substrate at BACE1.

Chain of soluble human BACE1 catalytic domain (P56817 75-416 limits assumed): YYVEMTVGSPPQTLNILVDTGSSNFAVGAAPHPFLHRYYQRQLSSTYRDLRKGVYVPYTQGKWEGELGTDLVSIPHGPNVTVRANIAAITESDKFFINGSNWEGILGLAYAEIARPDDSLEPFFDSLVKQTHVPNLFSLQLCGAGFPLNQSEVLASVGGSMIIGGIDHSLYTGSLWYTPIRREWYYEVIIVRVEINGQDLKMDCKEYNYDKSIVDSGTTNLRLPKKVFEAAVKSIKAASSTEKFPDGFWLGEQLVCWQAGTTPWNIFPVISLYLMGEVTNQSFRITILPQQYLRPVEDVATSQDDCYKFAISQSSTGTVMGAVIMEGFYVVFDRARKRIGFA

SMILES	Ki [1] [nM]	Ki [2] [nM]
CC1(C)C(=N)N[C@@]2(CCCc3ccc(NC(=O)c4ncc(Cl)cc4F)cc32)CS1(=O)=O [Example G-1]	2	11
COc1cnc(C(=O)Nc2ccc3c(c2)[C@]2(COC3)CS(=O)(=O)C(C)(C)C(=N)N2)cn1 [Example E-22]	187	334
COc1ccc(C(=O)Nc2ccc3c(c2)[C@]2(CCC3)CS(=O)(=O)C(C)(C)C(=N)N2)nc1 [Example G-20]	7	31
C#CCOc1cnc(C(=O)Nc2ccc3c(c2)[C@]2(CCO3)CS(=O)(=O)C(C)(C)C(=N)N2)cn1 [Example C-3]	14	3
CC1(C)C(=N)N[C@@]2(COCc3ccc(NC(=O)c4ccc(Cl)cn4)cc32)CS1(=O)=O [Example D-1]	7	23
CC1(C)C(=N)N[C@@]2(COCc3ccc(NC(=O)c4ncc(Cl)cc4F)cc32)CS1(=O)=O [Example E-15]	5	37
CC1(C)C(=N)N[C@@]2(COCc3ccc(NC(=O)c4ccc(F)cn4)cc32)CS1(=O)=O [Example E-13]	17	127
CC1(C)C(=N)N[C@@]2(CCCc3ccc(NC(=O)c4cnc(C(F)(F)F)cn4)cc32)CS1(=O)=O [Example G-12]	163	57
CC1(C)C(=N)N[C@@]2(CCCc3ccc(NC(=O)c4ccc(C(F)(F)F)cn4)cc32)CS1(=O)=O [Example G-24]	30	8
CC1(C)C(=N)N[C@@]2(COCc3ccc(NC(=O)c4cn5cc(C#N)ccc5n4)cc32)CS1(=O)=O [Example E-12]	2950	556
CC1(C)C(=N)N[C@@]2(COCc3ccc(NC(=O)c4cnc(OCCF)cn4)cc32)CS1(=O)=O [Example E-17]	443	326
COc1cnc(C(=O)Nc2ccc3c(c2)[C@]2(CCO3)CS(=O)(=O)C(C)(C)C(=N)N2)cn1 [Example C-23]	46	52
C#CCOc1ccc(C(=O)Nc2ccc3c(c2)[C@]2(COC3)CS(=O)(=O)C(C)(C)C(=N)N2)nc1 [Example E-19]	185	30
COc1cnc(C(=O)Nc2ccc3c(c2)[C@]2(CCC3)CS(=O)(=O)C(C)(C)C(=N)N2)c(C)c1 [Example G-8]	2	19
CC1(C)C(=N)N[C@@]2(COCc3ccc(NC(=O)c4ccc(C#N)cn4)cc32)CS1(=O)=O [Example E-14]	35	11
Cc1cc(C#N)cnc1C(=O)Nc1ccc2c(c1)[C@]1(CCC2)CS(=O)(=O)C(C)(C)C(=N)N1 [Example G-10]	3	2
Cc1cn(C)nc1C(=O)Nc1ccc2c(c1)[C@]1(CCO2)CS(=O)(=O)C(C)(C)C(=N)N1 [Example C-14]	1	15
CC1(C)C(=N)N[C@@]2(COCc3ccc(NC(=O)c4ccc(OCF)cn4)cc32)CS1(=O)=O [Example E-24]	13	57
Cc1nc(C(=O)Nc2ccc3c(c2)[C@]2(COC3)CS(=O)(=O)C(C)(C)C(=N)N2)no1 [Example E-8]	12	281

SMILES	Ki [1] [nM]	Ki [2] [nM]
CC1(C)C(=N)N[C@@]2(CCOc3ccc(NC(=O)c4cnsn4)cc32)CS1(=O)=O [Example C-4]	5	3
Cn1cc(Cl)c(C(=O)Nc2ccc3c(c2)[C@]2(CCC3)CS(=O)(=O)C(C)(C)C(=N)N2)n1 [Example G-6]	1	17
C#CCOc1ccc(C(=O)Nc2ccc3c(c2)[C@]2(CCC3)CS(=O)(=O)C(C)(C)C(=N)N2)nc1 [Example G-7]	51	10
Cc1nc(C(=O)Nc2ccc3c(c2)[C@]2(CCO3)CS(=O)(=O)C(C)(C)C(=N)N2)co1 [Example C-2]	3	18
Cc1nc(C(=O)Nc2ccc3c(c2)[C@]2(CCC3)CS(=O)(=O)C(C)(C)C(=N)N2)no1 [Example G-13]	6	83
CC1(C)C(=N)N[C@@]2(CCOc3ccc(NC(=O)c4ccc(OCF)cn4)cc32)CS1(=O)=O [Example C-13]	8	14
CC1(C)C(=N)N[C@@]2(CCOc3ccc(NC(=O)c4ccc(OC(F)F)cn4)cc32)CS1(=O)=O [Example C-10]	22	8
COc1cnc(C(=O)Nc2ccc3c(c2)[C@]2(CCO3)CS(=O)(=O)C(C)(C)C(=N)N2)c(C)c1 [Example C-20]	3	20
COCC(=O)Nc1ccc2c(c1)[C@]1(CCO2)CS(=O)(=O)C(C)(C)C(=N)N1 [Example B-3]	59	391
CC1(C)C(=N)N[C@@]2(CCOc3ccc(NC(=O)c4ccc(OC(F)(F)F)cn4)cc32)CS1(=O)=O [Example C-11]	41	10
CC1(C)C(=N)N[C@@]2(CCCc3ccc(NC(=O)c4ccc(Cl)cn4)cc32)CS1(=O)=O [Example F-1]	3	11
Cc1cc(C#N)cnc1C(=O)Nc1ccc2c(c1)[C@]1(COC2)CS(=O)(=O)C(C)(C)C(=N)N1 [Example E-5]	8	6
COc1cnc(C(=O)Nc2ccc3c(c2)[C@]2(CCC3)CS(=O)(=O)C(C)(C)C(=N)N2)c(C)n1 [Example G-9]	17	64
Cc1nc(C(=O)Nc2ccc3c(c2)[C@]2(CCO3)CS(=O)(=O)C(C)(C)C(=N)N2)no1 [Example C-7]	4	47
CC1(C)C(=N)N[C@@]2(COCc3ccc(NC(=O)c4ccc(C(F)(F)F)cn4)cc32)CS1(=O)=O [Example E-6]	155	41
CC1(C)C(=N)N[C@@]2(CCOc3ccc(NC(=O)c4ccc(C(F)(F)F)cn4)cc32)CS1(=O)=O [Example C-6]	50	10
CC1(C)C(=N)N[C@@]2(COCc3ccc(NC(=O)c4ncc(C(F)(F)F)cn4)cc32)CS1(=O)=O [Example E-1]	512	644
CC1(C)C(=N)N[C@@]2(CCCc3ccc(NC(=O)c4ccc(OC(F)F)cn4)cc32)CS1(=O)=O [Example G-15]	22	12
